# Activity calls are given as the source filed them. The calls are words filed in the database; no cut-off is given here.
# Legend:
# [1] = molecular target: T1, LgtC (Neisseria meningitidis) (UniProt Q93EK7); assay: Inhibition of Neisseria meningitidis LgtC at 50 uM using UDP-Gal donor substrate incubated for 20 mins by malachite green reagent based colorimetric method relative to control
# T1 sequence (whole entry): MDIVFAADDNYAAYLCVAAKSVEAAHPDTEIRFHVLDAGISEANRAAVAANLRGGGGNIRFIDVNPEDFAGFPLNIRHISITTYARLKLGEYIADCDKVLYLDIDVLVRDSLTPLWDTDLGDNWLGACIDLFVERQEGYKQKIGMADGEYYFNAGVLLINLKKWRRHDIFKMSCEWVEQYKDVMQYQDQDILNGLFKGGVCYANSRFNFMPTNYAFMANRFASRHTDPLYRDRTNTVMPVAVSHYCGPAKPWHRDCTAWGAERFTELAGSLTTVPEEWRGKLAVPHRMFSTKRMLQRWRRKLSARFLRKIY
# [2] = molecular target: Intestinal-type alkaline phosphatase (Bos taurus) (UniProt P19111); assay: Inhibition of calf intestinal phosphatase up to 100 uM using UDP as substrate measured after 20 mins by malachite green reagent based colorimetric method
# [3] = molecular target: T1, LgtC (Neisseria meningitidis); assay: (§1) Inhibition of Neisseria meningitidis LgtC using UDP-Gal donor substrate incubated for 20 mins by malachite green reagent based colorimetric method
# [4] = Effect on inorganic phosphate reaction with malachite green reagent at 1 mM after 20 mins by colorimetric method; assay type: functional
# LgtC = molecular target: T2, LgtC (Neisseria meningitidis, UniProt Q93EK7); assay: as §1
# T2 sequence (Q93EK7 whole entry): T1 sequence (whole entry)
# Pasteurella multocida = assay: Inhibition of recombinant Pasteurella multocida alpha-(2,3)-sialyltransferase expressed in Escherichia coli BL21 up to 100 uM using CMP-Neu5Ac donor substrate incubated for 20 mins by malachite reagent based colorimetric method
# [5] = Effect on inorganic phosphate reaction with malachite green reagent up to 100 uM after 20 mins by colorimetric method; assay type: functional
# [6] = molecular target: T3, Galactoside alpha-(1,2)-fucosyltransferase 2 (Homo sapiens) (UniProt Q10981); assay: Inhibition of recombinant human C-terminal His6-tagged FUT2 (Ile35 to His343 residues) expressed in HEK293 cells at 100 uM using GDP-Fuc donor substrate measured after 20 mins by malachite green reagent based colorimetric method; assay type: cell-based
# T3 sequence (whole entry): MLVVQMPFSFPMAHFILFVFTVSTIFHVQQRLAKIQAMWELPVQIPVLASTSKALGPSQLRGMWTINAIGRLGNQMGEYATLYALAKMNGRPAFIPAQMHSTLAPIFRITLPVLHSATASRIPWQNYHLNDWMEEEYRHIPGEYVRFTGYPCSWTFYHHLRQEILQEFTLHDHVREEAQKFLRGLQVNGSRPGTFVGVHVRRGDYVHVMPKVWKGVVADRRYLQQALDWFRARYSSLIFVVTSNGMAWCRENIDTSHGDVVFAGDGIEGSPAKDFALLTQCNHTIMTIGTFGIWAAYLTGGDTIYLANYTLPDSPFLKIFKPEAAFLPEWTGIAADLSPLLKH
# [7] = molecular target: T1, LgtC (Neisseria meningitidis); assay: Inhibition of Neisseria meningitidis LgtC at 100 uM using UDP-Gal donor substrate incubated for 20 mins followed by 5 fold dilution by malachite green reagent based colorimetric method relative to control
# [8] = molecular target: T1, LgtC (Neisseria meningitidis); assay: Inhibition of Neisseria meningitidis LgtC at 100 uM using UDP-Gal donor substrate incubated for 20 mins by malachite green reagent based colorimetric method relative to control
# Intestinal-type alkaline phosphatase (Bos taurus), sequence (P19111 20-506 limits assumed): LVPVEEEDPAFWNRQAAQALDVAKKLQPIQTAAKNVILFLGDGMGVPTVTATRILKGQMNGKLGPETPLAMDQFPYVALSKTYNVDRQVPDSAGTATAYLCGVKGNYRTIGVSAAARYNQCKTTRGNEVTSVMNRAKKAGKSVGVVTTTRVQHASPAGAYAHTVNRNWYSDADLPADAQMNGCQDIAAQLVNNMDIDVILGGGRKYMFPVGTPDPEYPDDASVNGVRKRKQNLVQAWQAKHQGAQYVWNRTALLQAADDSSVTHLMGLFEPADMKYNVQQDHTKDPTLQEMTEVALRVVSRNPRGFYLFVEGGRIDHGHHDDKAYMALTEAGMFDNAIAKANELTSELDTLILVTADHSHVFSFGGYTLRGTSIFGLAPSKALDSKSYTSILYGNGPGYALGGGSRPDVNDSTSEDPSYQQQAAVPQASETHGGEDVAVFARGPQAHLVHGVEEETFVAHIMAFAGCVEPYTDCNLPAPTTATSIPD
SMILES,inhibition [1],other results
CCOC(=O)c1cccc(N2N=C(C)/C(=C/C3CCN(C(=O)OC(C)(C)C)CC3)C2=O)c1,inactive,–
CC1=NN(c2ccccc2)C(=O)/C1=C\c1ccc(C)cc1,inactive,–
CC1=NN(c2ccccc2)C(=O)/C1=C\c1ccc(Cl)cc1,inactive,–
CC1=NN(c2ccccc2)C(=O)/C1=C\c1ccc(O)cc1,inactive,–
CC(=O)O[C@H]1C[C@@H]2CC[C@@H]3[C@H](CC[C@@]4(C)[C@H]3C[C@H]([N+]3(C)CCCCC3)[C@@H]4OC(C)=O)[C@@]2(C)C[C@@H]1N1CCCCC1,34%,inhibition [2]: Active; inhibition [3]: Dose-dependent effect; Activity [4]: Active
CC1=NN(c2ccccc2)C(=O)/C1=C\c1ccc(S(C)(=O)=O)cc1,inactive,–
CC1=NN(c2ccccc2)C(=O)/C1=C\c1ccccc1O,10%,–
CC1=NN(c2ccccc2)C(=O)/C1=C\c1ccccc1Cl,> 10%,IC50 (LgtC): 33 µM
COc1ccc2occ(/C=C3\C(=O)N(c4cccc(C(=O)O)c4)N=C3C)c(=O)c2c1,inactive,–
CC1=NN(c2ccccc2)C(=O)/C1=C\c1ccco1,inactive,–
CC1=NN(c2ccccc2)C(=O)/C1=C\c1cccc(O)c1,inactive,–
CC(=O)O[C@H]1C[C@@H]2CC[C@@H]3[C@H](CC[C@@]4(C)[C@H]3C[C@H]([N+]3(C)CCCCC3)[C@@H]4OC(C)=O)[C@@]2(C)C[C@@H]1[N+]1(C)CCCCC1,38%,inhibition [2]: Active; inhibition [3]: Dose-dependent effect; Activity [4]: Active
CC1=NN(c2ccccc2)C(=O)/C1=C\c1ccccc1C,> 10%,inhibition (Pasteurella multocida): inactive; Activity [5]: inactive; inhibition [2]: inactive; inhibition [6]: Active; IC50 (LgtC): 30 µM; inhibition [3]: Dose-dependent effect
CC1=NN(c2ccccc2)C(=O)/C1=C\c1ccccc1C(F)(F)F,–,inhibition [7]: 60%; inhibition [8]: 60%
CC1=NN(c2ccccc2)C(=O)/C1=C\c1cccc(OCc2ccccc2)c1,inactive,–
CC1=NN(c2ccccc2)C(=O)/C1=C\c1cccc([N+](=O)[O-])c1,inactive,–
CC1=NN(c2ccccc2)C(=O)/C1=C\c1cccnc1,inactive,–
CC1=NN(c2ccccc2)C(=O)/C1=C\c1cc(C(F)(F)F)ccc1C(F)(F)F,inactive,–
CC1=NN(c2ccccc2)C(=O)/C1=C\c1ccc(C#N)cc1,inactive,–
COc1cc(/C=C2\C(=O)N(c3cccc(C(=O)O)c3)N=C2C)cc(OC)c1O,inactive,–
CCOC(=O)c1cccc(N2N=C(C)/C(=C/c3ccncc3)C2=O)c1,inactive,–
CC1=NN(c2ccccc2)C(=O)/C1=C\c1ccncc1,inactive,–
CC1=NN(c2ccccc2)C(=O)/C1=C\c1cccc(C)c1,inactive,–

# From ChEMBL document CHEMBL4257475, “Identification of non-substrate-like glycosyltransferase inhibitors from library screening: pitfalls & hits” (Medchemcomm, 2018)
